In US20080033041A1, “USE OF PHENYLETHANOLAMINOTETRALINES FOR PREPARING ANXIOLYTIC DRUGS” (SANOFI-AVENTIS, priority 2004, published 2008):

Legend:
[1] = tested on: Sprague-Dawley and Wistar rats; test: Punished Drinking test; format: in vivo, rat; conditions: 10 mg/kg i.p., 30 minutes after injection, 5-minute period, control 10
Experimental: 4) The Punished Drinking Test (Griebel et al., (2002), ibid.) Male Sprague-Dawley and Wistar rats (Iffa Credo, L'Arbresle, and Charles River, Saint-Aubin-lès-Elbeuf, France), weighing 180 to 250 g were used. Experiments were performed 30 minutes after i.p. injection of 10 mg/kg of the drug or vehicle. The procedure was a modification of the technique described by Vogel et al., Psychopharmacologia, (1971), 21, p. 1-7. At the beginning of the experiment, rats, deprived of water but not of food for 48 hours prior to testing, were placed in cages (32×25×30 cm) with a stainless steel grid floor. Each cage was placed in sound-attenuated boxes that were well ventilated and contained a drinking tube connected to an external 50 mL burette filled with tap water. Trials were started only after the animal's tongue entered in contact with the drinking tube for the first time. An electric shock (0.6 mA/500 ms) was delivered to the tongue after every twenty licks. The number of shocks was recorded automatically during a 5-minute period. Subsequent comparisons between treatment groups and control were carried out using Dunnett's t-test.

[2] = tested on: rats of the Wistar strain; test: Ultrasonic Vocalizations (USVs) test; format: in vivo, rat; conditions: 10 mg/kg i.p.
Source text: 3) The Ultrasonic Vocalizations (USVs) Test
(Molewijk et al., Psychopharmacology, (1996),128, p. 31-38)
The animals, their preparation and the i.p. dosage of compound to be tested are the same as those described in the Novelty Induced Grooming test.
This test consists of two different sessions: training and testing sessions. In the training procedure, all animals were trained for 2 days prior to testing. Training consisted of placing the animal in a standard operant chamber (ENV-018M, Med Associates, Georgia, Vt.) where shock could be delivered from a programmable shocker (Model ENV-413, Med Associates) and where it is equipped with an ultrasonic detector (Mini-3 Bat Detector, Ultra Sound Advice, UK). On each of two consecutive days, all the animals received 20 shocks (1 mA, 4 seconds) separated by a random interval that averaged 60 seconds and ranging from 30 to 90 seconds. Each shock was administered concurrently with a 4-Watt light and an acoustic tone (85 dB, 4 s). The chamber was dark between each shock presentation.
On the day following training, animals were administered 10 mg/kg of compound A and placed in the operant apparatus for testing. […] USVs (18-22 KHz) were recorded over the intertrial interval and were expressed as a sum of total time spent vocalizing for each animal. […]

OF1 mice = test: Mouse Defense test Battery; format: in vivo; conditions: 1 hour after administration
Experimental: 6) The Mouse Defense test Battery (Griebel et al., (2002), ibid.) Male OF1 mice weighing 17 to 32 g were supplied by Charles River, Iffa Credo or Janvier (Le Genest, France). Experiments were performed 1 hour after p.o. administration of 0.3 mg/kg or 3 mg/kg of the drug or vehicle. The test was conducted in an oval runway as described (Griebel et al., 1997), 23, p. 19-31). Tested mice were submitted to a 3-minute familiarization period sixty minutes after p.o. administration of compound A. (a) The rat avoidance test/flight: Immediately after the 3-minute familiarization period, the experimenter introduced a hand-held dead rat (killed by CO2 inhalation just before the beginning of the experiment) five times at one end of the runway. The following parameter was recorded: avoidance distance (cm). (b) Risk Assessment/Chase Test: The rat was then brought up to the subject at a speed of approximately 2 m/s. A constant distance of 2 meters separated the rat and the subject when the former was introduced in the runway. The following parameter was recorded: number of stops (pauses in movement). The rat was removed after the chase was completed. (c) Defensive Aggression/Straight Alley: By the closing of two doors (60 cm distant from each other), the runway was then converted to a straight alley in which the subject was constrained. The experimenter brought the rat up to contact the subject in the straight alley. Approaches were directed quickly (within 1 second) to the subject's head. For each such contact, bites by the subjects were recorded.

[3] = tested on: rats of the Wistar strain; test: Novelty Induced Grooming Test; format: in vivo, rat; conditions: 10 mg/kg i.p., 30 min before test, 30-minute session, control 37 (±3.61)
Experimental: 1) The Novelty Induced Grooming Test
(Gipsen et al., (1975), ibid.)
Male rats of the Wistar strain (purchased from Morini, Italy) weighing from 200 to 220 g were used throughout this test. All animals were gently manipulated by experienced facilities' handlers, avoiding any environmental or physical stress. Compounds according to the invention to be tested were injected intraperitoneally (i.p.) to a group of rats at a dosage 10 mg/kg. Control animals received i.p. the same volume of the vehicle (i.e, physiological saline). […]
Rats were placed individually into plexiglas boxes (24×12×24 cm) in a low noise room. After a minute of adaptation, the behaviour of the rats was sampled every 15 seconds, and the occurrence of grooming was recorded in a session of 30 minutes. The occurrence of the following single elements of grooming was scored as grooming: washing (i.e., vibrating movements of the fore paws in front of the snout and licking of the same paws leading to a series of strokes along the snout and semicircular movements over the top of the head), scratching (that is scratching of the body by one of the limbs), licking (that is licking of the body fur, limbs and tail), and genital grooming (that is licking of genital area). Grooming behaviour of all animals was recorded on a tape using a video-camera (Hitachi Videocam) and then replayed and scored by two independent observers. […]

[4] = tested on: rats of the Wistar strain; test: Elevated Plus Maze test; format: in vivo, rat; conditions: 10 mg/kg i.p., 5 minutes observation
Source text: 2) The Elevated Plus Maze Test (Pellow S. et al., Journal of Neuroscience Methods, (1985), 14(3), p.149-67) The animals, their preparation and the i.p. dosage of compound to be tested are the same as those described in the Novelty Induced Grooming test. The apparatus consisted of a plus-shaped maze, elevated of 50 centimetres from the floor, with two opposite open arms (50×10 cm) crossed at right angles by two arms of the same dimensions, but enclosed by 40-centimetre high walls with an open roof. In addition, a 1-centimetre high edge made of plexiglas surrounded the open arms to avoid falls. Illumination measured at the centre of the maze was 40 lux. After treatment, the animal was placed at the centre of the plus maze with its nose in the direction of one of the closed arms, and observed for 5 minutes, according to the following parameters: number of entries in the open and closed arms (this parameter can also be expressed by means of percentage of entries in the open arms), and time of presence in each of them (this parameter can also be expressed by means of percentage of time stayed in the open arms. The time of presence measures the time spent by the animal in the open and closed arms. The animals were divided into four groups with 7 animals per group.

Mongolian gerbils = test: Social Interaction test; format: in vivo, gerbil; conditions: 10 mg/kg p.o., 1 hour after administration, control 30 seconds
Experimental: 5) The Social Interaction Test (Salomé et al., Sanofi-Synthelabo Research, CNS Department, Bagneux, France, ibid.) Male Mongolian gerbils (7-week old, 50-60 g, CERJ, France) were used. Experiments were performed 1 hour after per os (p.o.) administration of 10 mg/kg of the drug or vehicle. The procedure was based on that described initially by File et al., Brain Res., (2001), 888, p. 311-313. Testing lasting two days. On day 1, gerbils were placed individually in a plastic box (30×30×20 cm) under high light conditions (300 lux) for a 10-minute free-exploration period to familiarize with the apparatus. Twenty-four hours later, two gerbils of the same weight but unfamiliar to each other were placed together in the box they had previously explored for a 4 minute 30 seconds observation period. Interaction time (sniffing, chasing, grooming the partner) was recorded manually for each pair of gerbils. Locomotor activity (distance travelled in centimetres) was measured with an automated tracking system (Ethovision, Noldus).

Structure (SMILES): CCOC(=O)COc1ccc2c(c1)C[C@@H](NC[C@H](O)c1cccc(Cl)c1)CC2.Cl [compound A, ethyl [(7S) 7-[(2R) 2-(3-chlorophenyl)-2-hydroxyethylamino]-5,6,7,8-tetrahydronaphthalen-2yloxy]-acetate hydrochloride]
- Number of shocks (punished responding) [1]: 30 shocks
- decrease of conditioned USVs versus control [2]: ~50%
- Conditioned USVs duration (total time spent vocalizing) ([2]; control more than 210 seconds): < 120 s
- Number of bites (defensive aggression/straight alley) (OF1 mice; 0.3 mg/kg p.o., control about 2.75 times): about 1.3 times
- Number of stops (risk assessment/chase test) (OF1 mice; 3 mg/kg p.o., control 9 stops): 6 stops
- Avoidance distance (rat avoidance test/flight) (OF1 mice; 3 mg/kg p.o., control 120 cm): 75 cm
- Number of grooming episodes [3]: 17.71 (±5.91)
- mean number of entries into the open arms ([4]; control 4): 7
- percentage of time in the open arms ([4]; control 32%): 42%
- percentage of entries into the open arms ([4]; control 40%): 50%
- mean time spent in the open arms ([4]; control 78 seconds): 98 s
- Social interaction time (Mongolian gerbils): 70 s
